Source: ChEMBL document CHEMBL1201862, “PubChem BioAssay data set” (2004)
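Results reflect a 48-hour exposure of cells in 96-well plates to compound at five concentrations. Abbreviation: GI50, concentration required for 50% inhibition of growth.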 Active and inactive are the calls of the source. Rule as the data show it: active = GI50 up to about 1.1 µM and inactive = higher.

Legend:
Test in all cases: DTP human tumour cell line panel, 48 h
[1] = test system: ACHN
[2] = test system: KM12
[3] = test system: HL-60
[4] = test system: DU-145
[5] = test system: NCI-H226
[6] = test system: PC-3
[7] = test system: RXF 393
[8] = test system: NCI-H23
[9] = test system: SF-295
[10] = test system: UACC-257
[11] = test system: MDA-N
[12] = test system: OVCAR-3
[13] = test system: MOLT-4
[14] = test system: SF-268
[15] = test system: HCT-116
[16] = test system: HOP-62
[17] = test system: U-251
[18] = test system: SK-MEL-28

Measured: GI50

CC12CC(=O)C3C(CCC4=CC(=O)CCC43C)C1CC=C2CC(=O)O (stereo not drawn)
inactive: [1] > 100 µM | [2] > 100 µM | [3] > 100 µM | [4] > 100 µM | [5] > 100 µM | [6] > 100 µM | [7] > 100 µM | [8] > 100 µM | [9] > 100 µM | [10] > 100 µM | [11] > 100 µM | [12] 98.2 µM | [13] > 100 µM | [14] > 100 µM | [15] > 100 µM | [16] > 100 µM | [17] > 100 µM | [18] > 100 µM

Cc1ccc(/S(Cc2ccccc2)=N\S(=O)(=O)c2ccc(C)cc2)cc1 (stereo not drawn)
inactive: [1] > 100 µM | [2] > 100 µM | [3] > 100 µM | [4] > 100 µM | [5] > 100 µM | [6] > 100 µM | [7] > 100 µM | [8] > 100 µM | [9] > 100 µM | [10] > 100 µM | [11] > 100 µM | [12] > 100 µM | [13] 5.92 µM | [14] > 100 µM | [15] > 100 µM | [16] > 100 µM | [17] > 100 µM | [18] > 100 µM

Cn1c(=O)c2c(nc(Nc3ccc(Cl)cc3)n3c(=O)n(-c4ccccc4)c(=O)n23)n(C)c1=O
inactive: [1] > 100 µM | [2] > 100 µM | [3] > 100 µM | [4] > 100 µM | [5] > 100 µM | [6] > 100 µM | [7] > 100 µM | [8] > 100 µM | [9] > 100 µM | [10] > 100 µM | [11] > 100 µM | [12] > 100 µM | [13] > 100 µM | [14] > 100 µM | [15] > 100 µM | [16] > 100 µM | [17] > 100 µM | [18] > 100 µM

O=C1N/C(=N/N=C/c2ccccc2)N/C1=C\c1c[nH]c2ccccc12
inactive: [1] > 100 µM | [2] 65 µM | [3] 67.3 µM | [4] > 100 µM | [5] 72.6 µM | [6] 22.6 µM | [7] > 100 µM | [8] 95.1 µM | [9] > 100 µM | [10] > 100 µM | [11] > 100 µM | [12] 49.7 µM | [13] 25.1 µM | [14] 56.6 µM | [15] > 100 µM | [16] 61.4 µM | [17] 21.9 µM | [18] > 100 µM

COC(=O)/C=C(C)/C=C\COC1CCCCO1 (stereo not drawn)
inactive: [1] > 100 µM | [2] > 100 µM | [3] > 100 µM | [4] > 100 µM | [5] > 100 µM | [6] > 100 µM | [7] > 100 µM | [8] > 100 µM | [9] > 100 µM | [10] > 100 µM | [11] > 100 µM | [12] > 100 µM | [13] > 100 µM | [14] > 100 µM | [15] > 100 µM | [16] > 100 µM | [17] > 100 µM | [18] > 100 µM

COc1cc(/C=N\O)cc(/C=N/O)c1O
inactive: [1] 26.2 µM | [2] > 100 µM | [3] 27.7 µM | [4] > 100 µM | [5] 24.2 µM | [6] 28.9 µM | [7] 23.6 µM | [8] > 100 µM | [9] 17.1 µM | [10] 74 µM | [11] 39.9 µM | [12] 63 µM | [13] 25.7 µM | [14] 35.7 µM | [15] 33.4 µM | [16] 21.9 µM | [17] 37.9 µM | [18] 38.5 µM

N#Cc1c(=O)c2cc([N+](=O)[O-])ccc2n2c1[nH]c1ccccc12
inactive: [1] 9.48 µM | [2] 5.85 µM | [3] 4.81 µM | [4] 8.05 µM | [5] 4.58 µM | [6] 4 µM | [7] 3.55 µM | [8] 3.19 µM | [9] 4.2 µM | [10] 7.46 µM | [11] 15 µM | [12] 3.43 µM | [13] 4.83 µM | [14] 8.67 µM | [15] 3.37 µM | [16] 9.55 µM | [17] 7.71 µM | [18] 4.48 µM

O=C(C/C(=N/O)C(F)(F)F)c1cccs1
inactive: [1] > 100 µM | [2] > 100 µM | [3] > 100 µM | [4] > 100 µM | [5] > 100 µM | [6] > 100 µM | [7] > 100 µM | [8] > 100 µM | [9] > 100 µM | [10] > 100 µM | [11] > 100 µM | [12] 67.8 µM | [13] > 100 µM | [14] > 100 µM | [15] > 100 µM | [16] > 100 µM | [17] > 100 µM | [18] > 100 µM

O=C(OC1C=C=CS(=O)(=O)CC#C/C=C\1)c1cnc2ccccc2n1 (stereo not drawn)
inactive: [1] 93.1 µM | [2] > 100 µM | [3] 76.4 µM | [4] > 100 µM | [5] > 100 µM | [6] > 100 µM | [7] > 100 µM | [8] 83.6 µM | [9] > 100 µM | [10] > 100 µM | [11] 52 µM | [12] > 100 µM | [13] 50.7 µM | [14] > 100 µM | [15] 92.3 µM | [16] > 100 µM | [17] 84.1 µM | [18] > 100 µM

c1ccc2c(Cc3c[nH]c4ccccc34)c[nH]c2c1 [ARUNDINE]
inactive: [1] > 100 µM | [2] 19.1 µM | [3] 12.5 µM | [4] 18.2 µM | [5] 2.14 µM | [6] 18.2 µM | [7] 15.6 µM | [8] 13.3 µM | [9] 19.9 µM | [10] 18.5 µM | [11] 19.2 µM | [12] 15.7 µM | [13] 13.5 µM | [14] 28.1 µM | [15] 17.1 µM | [16] 17.7 µM | [17] 17.7 µM | [18] 36 µM

O=C(O)CCc1nc2ccccc2[nH]1 [PROCODAZOLE]
inactive: [1] > 100 µM | [2] > 100 µM | [3] > 100 µM | [4] > 100 µM | [5] > 100 µM | [6] > 100 µM | [7] > 100 µM | [8] > 100 µM | [9] > 100 µM | [10] > 100 µM | [11] > 100 µM | [12] > 100 µM | [13] > 100 µM | [14] > 100 µM | [15] > 100 µM | [16] > 100 µM | [17] > 100 µM | [18] > 100 µM
